Experiment [1] concerns Mycobacterium tuberculosis. Description: Antimicrobial activity against rifampicin-resistant and INH-resistant Mycobacterium tuberculosis 2643 by agar dilution method and BACTEC radiometric method. The class given is functional. For orientation: In agar dilution the substance is mixed into plates at graded concentrations.
Experiment [2] deals with Mycobacterium tuberculosis. Nature of the experiment: Antimicrobial activity against rifampicin-resistant and INH-resistant Mycobacterium tuberculosis 1678/05 by agar dilution method and BACTEC radiometric method. In kind it is functional.

Molecules are shown by their SMILES. ≈ marks a conversion by molar mass, not a printed value.

By MIC is commonly meant the least concentration at which growth counts as inhibited. A high value points to a need for much substance.

For the molecule `COc1cc(OCCN(C(C)C)C(C)C)c2c(c1)C(C)(C)[C@H](c1ccccc1)[C@H]2c1ccccc1` (relative stereo), the minimal inhibitory concentration (MIC) in experiment [1] and in experiment [2] was 6.25 µg/mL (≈ 13.3 µM) each time.
Turning to `COc1cc(OCCN2CCCCCC2)c2c(c1)C(C)(C)[C@H](c1ccccc1)[C@H]2c1c(OC)ccc2ccccc12` (relative stereo), the MIC in experiment [1] and in experiment [2] was 3.12 µg/mL (≈ 5.68 µM) in each case.

The values are drawn from ChEMBL document CHEMBL2346660, “Synthesis and biological evaluation of trans 6-methoxy-1,1-dimethyl-2-phenyl-3-aryl-2,3-dihydro-1H-inden-4-yloxyalkylamine derivatives against drug susceptible, non-replicating M. tuberculosis H37Rv and clinical multidrug resistant strains” (Bioorg Med Chem Lett, 2013).
